Source: patent publication US9914730B2, “Azaquinazoline inhibitors of Atypical protein Kinase C” (Ignyta, Inc., priority 2012, dated 2018)

Molecular target: T1, full-length human PKCι (Homo sapiens, UniProt P41743)
T1 construct: Recombinant, full-length human PKCι expressed in Sf21 insect cells is also commercially available; purchased; host or cells: Sf21 insect cells
T1 sequence (P41743 1-596): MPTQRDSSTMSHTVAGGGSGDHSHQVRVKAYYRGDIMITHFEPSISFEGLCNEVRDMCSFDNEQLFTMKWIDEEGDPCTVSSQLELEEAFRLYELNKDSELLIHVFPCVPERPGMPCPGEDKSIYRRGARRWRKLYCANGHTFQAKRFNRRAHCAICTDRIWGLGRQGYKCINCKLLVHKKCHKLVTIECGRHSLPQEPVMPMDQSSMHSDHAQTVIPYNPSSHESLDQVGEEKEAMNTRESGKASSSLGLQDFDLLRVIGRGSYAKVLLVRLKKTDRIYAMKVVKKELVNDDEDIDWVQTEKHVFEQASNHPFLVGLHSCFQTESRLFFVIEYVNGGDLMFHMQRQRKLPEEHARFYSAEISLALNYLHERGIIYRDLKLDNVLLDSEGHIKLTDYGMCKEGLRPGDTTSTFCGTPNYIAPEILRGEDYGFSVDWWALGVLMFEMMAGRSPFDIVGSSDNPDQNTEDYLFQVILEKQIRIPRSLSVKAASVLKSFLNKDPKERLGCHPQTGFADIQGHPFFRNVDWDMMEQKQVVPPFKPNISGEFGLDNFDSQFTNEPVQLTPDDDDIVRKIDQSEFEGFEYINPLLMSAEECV
Assay: PKCι IC50 IMAP assay, full-length PKCι at 150 μM ATP
Format: biochemical
Conditions: read-out: IC50 in IMAP assay against full length PKCi at 150 μM ATP
Procedure, shortened: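 Full-length human PKCι from Sf21 cells, typically 15 pM, with 100 nM 5FAM-PKCε pseudosubstrate peptide and 150 μM ATP (5× apparent KM), 60 min at room temperature, 4% DMSO. IMAP fluorescence polarisation read-out; inhibition normalised to no-compound and no-enzyme controls, IC50 from curve fit.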

IC50 [nM]	SMILES
< 100	C[C@@H](Nc1cc(-c2nc(N3CCNCC3)c3c(C4CC4)cncc3n2)ccn1)c1ccc2ccccc2c1 [Example 2160, [4-(5-Cyclopropyl-4-piperazin-1-yl-pyrido[3,4-d]pyrimidin-2-yl)-pyridin-2-yl]-((R)-1-naphthalen-2-yl-ethyl)-amine]
< 100	C[C@@H](Nc1cc(-c2nc(N3CCNCC3)c3c(C4CCC4)cncc3n2)ccn1)c1ccccc1F [Example 2161, [4-(5-Cyclobutyl-4-piperazin-1-yl-pyrido[3,4-d]pyrimidin-2-yl)-pyridin-2-yl]-[(R)-1-(2-fluoro-phenyl)-ethyl]-amine]
< 100	FC(F)(F)Oc1ccc(Nc2cc(-c3nc(N4CCNCC4)c4c(C5CC5)cncc4n3)ccn2)cc1 [Example 2162, [4-(5-Cyclopropyl-4-piperazin-1-yl-pyrido[3,4-d]pyrimidin-2-yl)-pyridin-2-yl]-(4-trifluoromethoxy-phenyl)-amine]
< 100	OC[C@@H](Nc1cc(-c2nc(N3CCNCC3)c3c(C4CC4)cncc3n2)ccn1)c1ccccc1 [Example 2164, (S)-2-[4-(5-Cyclopropyl-4-piperazin-1-yl-pyrido[3,4-d]pyrimidin-2-yl)-pyridin-2-ylamino]-2-phenyl-ethanol]
< 100	C[C@@H](Nc1cc(-c2nc(N3CCNCC3)c3c(C4CC4)cncc3n2)ccn1)c1cccc2ccccc12 [Example 2165, [4-(5-Cyclopropyl-4-piperazin-1-yl-pyrido[3,4-d]pyrimidin-2-yl)-pyridin-2-yl]-((R)-1-naphthalen-1-yl-ethyl)-amine]
< 100	FC(F)(CNc1cc(-c2nc(N3CCNCC3)c3c(C4CC4)cncc3n2)ccn1)c1ccccc1 [Example 2166, [4-(5-Cyclopropyl-4-piperazin-1-yl-pyrido[3,4-d]pyrimidin-2-yl)-pyridin-2-yl]-(2,2-difluoro-2-phenyl-ethyl)-amine]
< 100	CN(CC1CCNCC1)c1nc(-c2ccnc(Nc3ncc(F)cc3F)c2)nc2cncc(C3CC3)c12 [Example 2167, {5-Cyclopropyl-2-[2-(3,5-difluoro-pyridin-2-ylamino)-pyridin-4-yl]-pyrido[3,4-d]pyrimidin-4-yl}-methyl-piperidin-4-ylmethyl-amine]
10000 to 40000	Fc1cnc(Nc2cc(-c3nc(NC4CCOCC4)c4c(C5CC5)cncc4n3)ccn2)c(F)c1 [Example 2168, {5-Cyclopropyl-2-[2-(3,5-difluoro-pyridin-2-ylamino)-pyridin-4-yl]-pyrido[3,4-d]pyrimidin-4-yl}-(tetrahydro-pyran-4-yl)-amine]
< 100	Fc1cc(Cl)cnc1Nc1cc(-c2nc(N3CCNCC3)c3c(C4CC4)cncc3n2)ccn1 [Example 2171, (5-Chloro-3-fluoro-pyridin-2-yl)-[4-(5-cyclopropyl-4-piperazin-1-yl-pyrido[3,4-d]pyrimidin-2-yl)-pyridin-2-yl]-amine]
1000 to 10000	Fc1cnc(Nc2cc(-c3nc(N4CCC(C5CCOCC5)C4)c4c(C5CC5)cncc4n3)ccn2)c(F)c1 (stereo not drawn) [Example 2173, (4-{5-Cyclopropyl-4-[3-(tetrahydro-pyran-4-yl)-pyrrolidin-1-yl]-pyrido[3,4-d]pyrimidin-2-yl}-pyridin-2-yl)-(3,5-difluoro-pyridin-2-yl)-amine]
< 100	CC1(Nc2nc(-c3ccnc(Nc4ncc(F)cc4F)c3)nc3cncc(C4CC4)c23)CCNCC1 [Example 2174, {5-Cyclopropyl-2-[2-(3,5-difluoro-pyridin-2-ylamino)-pyridin-4-yl]-pyrido[3,4-d]pyrimidin-4-yl}-(4-methyl-piperidin-4-yl)-amine]
< 100	CC1(C)CNCCC1Nc1nc(-c2ccnc(Nc3ncc(F)cc3F)c2)nc2cncc(C3CC3)c12 (stereo not drawn) [Example 2175, {5-Cyclopropyl-2-[2-(3,5-difluoro-pyridin-2-ylamino)-pyridin-4-yl]-pyrido[3,4-d]pyrimidin-4-yl}-(3,3-dimethyl-piperidin-4-yl)-amine]
< 100	CC1(C)CNCCC1Nc1nc(-c2ccnc(Nc3nc(F)c(F)cc3F)c2)nc2cncc(C3CC3)c12 (stereo not drawn) [Example 2176, {5-Cyclopropyl-2-[2-(3,5,6-trifluoro-pyridin-2-ylamino)-pyridin-4-yl]-pyrido[3,4-d]pyrimidin-4-yl}-(3,3-dimethyl-piperidin-4-yl)-amine]
< 100	Fc1cc(F)c(Nc2cc(-c3nc(N4CCNCC4)c4c(C5CC5)cnc(Cl)c4n3)ccn2)nc1F [Example 2178, [4-(8-Chloro-5-cyclopropyl-4-piperazin-1-yl-pyrido[3,4-d]pyrimidin-2-yl)-pyridin-2-yl]-(3,5,6,-trifluoro-pyridin-2-yl)-amine]
< 100	Fc1cccnc1-c1cc2c(-c3nc(N4CCNCC4)c4c(C5CC5)cncc4n3)ccnc2[nH]1 [Example 2179, 5-Cyclopropyl-2-[2-(3-fluoro-pyridin-2-yl)-1H-pyrrolo[2,3-b]pyridin-4-yl]-4-piperazin-1-yl-pyrido[3,4-d]pyrimidine]
< 100	Fc1cccnc1-c1cc2c(-c3nc(N4CCNCC4)c4c(C5CCC5)cncc4n3)ccnc2[nH]1 [Example 2180, 5-Cyclobutyl-2-[2-(3-fluoro-pyridin-2-yl)-1H-pyrrolo[2,3-b]pyridin-4-yl]-4-piperazin-1-yl-pyrido[3,4-d]pyrimidine]

The next lines start with the molecule.

SMILES	IC50 [nM]
CN(c1nc(-c2ccnc(Nc3ncc(F)cc3F)c2)nc2cncc(C3CCC3)c12)C1CCNCC1 [Example 2157, {5-Cyclobutyl-2-[2-(3,5-difluoro-pyridin-2-ylamino)-pyridin-4-yl]-pyrido[3,4-d]pyrimidin-4-yl}-methyl-piperidin-4-yl-amine]	< 100
OC[C@H](Nc1cc(-c2nc(N3CCNCC3)c3c(C4CC4)cncc3n2)ccn1)c1ccccc1 [Example 2159, (R)-2-[4-(5-Cyclopropyl-4-piperazin-1-yl-pyrido[3,4-d]pyrimidin-2-yl)-pyridin-2-ylamino]-2-phenyl-ethanol]	100 to 1000
CN(c1nc(-c2ccnc(Nc3nc(F)c(F)cc3F)c2)nc2cncc(C3CCC3)c12)C1CCNCC1 [Example 2163, {5-Cyclobutyl-2-[2-(3,5,6-trifluoro-pyridin-2-ylamino)-pyridin-4-yl]-pyrido[3,4-d]pyrimidin-4-yl}-methyl-piperidin-4-yl-amine]	< 100
CN(c1nc(-c2ccnc(Nc3nc(F)c(F)cc3F)c2)nc2c(Cl)ncc(C3CC3)c12)C1CCNCC1 [Example 2169, {8-Chloro-5-cyclopropyl-2-[2-(3,5,6-trifluoro-pyridin-2-ylamino)-pyridin-4-yl]-pyrido[3,4-d]pyrimidin-4-yl}-methyl-piperidin-4-yl-amine]	< 100
CN(c1nc(-c2ccnc(Nc3ncc(F)cc3F)c2)nc2c(Cl)ncc(C3CC3)c12)C1CCNCC1 [Example 2170, {8-Chloro-5-cyclopropyl-2-[2-(3,5-difluoro-pyridin-2-ylamino)-pyridin-4-yl]-pyrido[3,4-d]pyrimidin-4-yl}-methyl-piperidin-4-yl-amine]	< 100
CN(c1nc(-c2ccnc(Nc3ncc(F)cc3F)c2)nc2cncc(C3CC3)c12)C1CCOCC1 [Example 2172, {5-Cyclopropyl-2-[2-(3,5-difluoro-pyridin-2-ylamino)-pyridin-4-yl]-pyrido[3,4-d]pyrimidin-4-yl}-methyl-(tetrahydro-pyran-4-yl)-amine]	1000 to 10000
CC1(C)CC(Nc2cc(-c3nc(N4CCNCC4)c4c(C5CC5)cncc4n3)ccn2)c2ccccc21 (stereo not drawn) [Example 2177, [4-(5-Cyclopropyl-4-piperazin-1-yl-pyrido[3,4-d]pyrimidin-2-yl)-pyridin-2-yl]-(3,3-dimethyl-indan-1-yl)-amine]	< 100
c1ccc(C2(c3cc4c(-c5nc(N6CCNCC6)c6c(C7CCC7)cncc6n5)ccnc4[nH]3)CCC2)cc1 [Example 2181, 5-Cyclobutyl-2-[2-(1-phenyl-cyclobutyl)-1H-pyrrolo[2,3-b]pyridin-4-yl]-4-piperazin-1-yl-pyrido[3,4-d]pyrimidine]	< 100
CC(C)(c1cc2c(-c3nc(N4CCNCC4)c4c(C5CCC5)cncc4n3)ccnc2[nH]1)C(F)(F)F [Example 2182, 5-Cyclobutyl-4-piperazin-1-yl-2-[2-(2,2,2-trifluoro-1,1-dimethyl-ethyl)-1H-pyrrolo[2,3-b]pyridin-4-yl]-pyrido[3,4-d]pyrimidine]	< 100
FC(F)(F)C1(c2cc3c(-c4nc(N5CCNCC5)c5c(C6CCC6)cncc5n4)ccnc3[nH]2)CCC1 [Example 2183, 5-Cyclobutyl-4-piperazin-1-yl-2-[2-(1-trifluoromethyl-cyclobutyl)-1H-pyrrolo[2,3-b]pyridin-4-yl]-pyrido[3,4-d]pyrimidine]	< 100
c1cc(-c2nc(N3CCNCC3)c3c(C4CCC4)cncc3n2)c2cc(C3CCOC3)[nH]c2n1 (stereo not drawn) [Example 2184, 5-Cyclobutyl-4-piperazin-1-yl-2-[2-(tetrahydro-furan-3-yl)-1H-pyrrolo[2,3-b]pyridin-4-yl]-pyrido[3,4-d]pyrimidine]	< 100
